Test results reported in patent US8980922B2, “5-HT4 receptor agonists for the treatment of dementia” (Raqualia Pharma Inc., priority 2010, dated 2015).
Counter-ions that a name gives are not always drawn.

Legend:
Male IGS rats [1] = assay: Spontaneous alteration test in rats (scopolamine-induced impairment); assay type: in vivo, rat
Method: Spontaneous Alteration Test in Rats (Method Referred: Eur. J. Pharmacol., 236 (1993) 341-345)
Male IGS rats (6 weeks-old, Charles River Laboratories Japan, Inc.) were used in this study. The scopolamine solution or saline was administered intraperitoneally 30 minutes after the administration of the test substance or vehicle. Thirty minutes after the injection, the rat was placed at the end of one arm toward to the end of the arm and was allowed to move freely through the maze for 8-min test session. The sequence of arm entries was recorded manually. Alteration was defined as entry into all three arms on consecutive choices. The percent alteration as an indicator of spontaneous alteration performance was calculated as (number of alterations/total number of arm entries minus 2)×100.
The effect of Compound A on the scopolamine-induced impairment of spontaneous alteration performance in rats was investigated. In the percent alterations, the values on saline- and scopolamine-treated groups were 75.2% and 53.9%, respectively.

Male IGS rats [2] = assay: Rat Novel Object Recognition Study; assay type: in vivo
Method: Rat Novel Object Recognition Study (Method Referred: PNAS, 101 (2003) 853-858)
Male IGS rats (9 weeks-old, Charles River Laboratories Japan, Inc.) were used in this study. Compound A and donepezil hydrochloride (reference substance) were orally administered at 60 min before training trial and before retention trial. Number of animals per group was 15. Open-field box (40×40×40 cm) with sawdust covering its floor was used in this study. As for the training trials, the animals were allowed to explore two identical objects (A1 and A2) for 3 min. The objects are plastic “LEGO bricks” that vary in shape, color, and size. […]
Exploration of an object was defined as pointing the nose to the object at a distance of <1 cm and/or touching it with the nose. DVD images were analyzed by an observer who was […] of the treatment condition. To assess cognitive performance, the time spent exploring the familiar (TA3) and novel (TB) object, and discrimination index (DI; (TB−TA3)/(TB+TA3)) was analyzed. […] To assess the overall levels of exploratory performance, total time spent exploring the both objects was analyzed.
For Compound A, discrimination index was analyzed using Bartlett's test followed by Dunnett's multiple comparison test. […] For donepezil, discrimination index was analyzed using F-test, followed by Student's t-test. […]

[3] = system: rat hippocampus (Hip) ACh level; assay: Increase of hippocampus ACh release in rats (microdialysis); assay type: in vivo; conditions: direct injection (perfusion via dialysis probe, 120 min) into rat Hip; 100 nM eserine in aCSF
Method: Increase of Hippocampus ACh Release in Rats
Effects of Compound A on rat hippocampus (Hip) ACh level were tested using microdialysis in Male Wistar rats. One day before the start of the experiments, rats were anesthetized and guide cannula was implanted in the dorsal Hip. One day after surgery, a dialysis probe was inserted through a guide cannula in Hip and perfused with artificial cerebrospinal fluid (aCSF) containing 148 mM NaCl, 2.7 mM KCl, 1.2 mM CaCl2, 0.85 mM MgCl2, together with 100 nM eserine. After a 1 h equilibration period, sample collection began. Outflow fractions were collected every 20 min. After six stable baseline fractions were collected, the perfusate was replaced to aCSF containing Compound A with 100 nM eserine for 120 min, and then it was switched again to aCSF with 100 nM eserine alone. Dialysis fractions were then analyzed using high performance liquid chromatography with an electrochemical detection system. Isopropyl homocholine was used as internal standard. The amount of ACh in each dialysate sample was calculated from the peak height ratio of ACh/IPHC. ACh content was expressed as a percent of baseline calculated from the average of three samples preceding drug infusion.
ACh content was expressed as a percent of baseline calculated from the average of three samples preceding drug infusion.

Tg2576 mice = assay: Abeta reduction in Tg2576 mice; assay type: in vivo; conditions: 1 and 10 mg/kg BID orally, three weeks; soluble plus insoluble Abeta, ELISA
Method: Female Tg2576 mice that express the human amyloid precursor protein (APP) gene with the Swedish mutation (APPSWE) were purchased from Taconic Farms (catalog #001349-TF).
Tg2576 mice (31-week old at the beginning of the experiment) were dosed orally twice a day (BID) for 3 weeks with 0.1, 1, or 10 mg/kg Compound A in the vehicle consisting of 0.5% methylcellulose and 0.1% Tween 80. Mice were euthanized three hours after the last dose. Brain tissues were collected and homogenized in 5-volumes of ice-cold TBS buffer (50 mM Tris-HCl) containing 1% CHAPS and protease inhibitors. The homogenates were centrifuged at 14,000 g for 10 minutes at 4° C., and the resulting supernatants were collected as soluble pool of Abeta. The pellets were dissolved in the starting volume of 5 M guanidine in TBS buffer and the resulting homogenates were collected as insoluble pool of Abeta. Abeta1-40 and Abeta1-42 were quantified using commercially available ELISA kits according to the manufacture's instructions. Measurements were performed in duplicate. The final values of Abeta in the brain were expressed as nanograms per gram wet brain weight. Total Abeta levels were obtained by adding the values of the soluble and insoluble Abeta levels.

Abeta = conditions: NPL 13; cited from earlier work

CN1[C@@H]2C[C@@H](OC(=O)[C@H](CO)c3ccccc3)C[C@H]1[C@@H]1O[C@@H]12 [scopolamine, reference compound]
percent alteration (Male IGS rats [1]; scopolamine-treated group (intraperitoneal), saline-treated group 75.2%, p<0.01): 53.9%

COc1cc2c(cc1OC)C(=O)C(CC1CCN(Cc3ccccc3)CC1)C2 (stereo not drawn) [donepezil, donepezil hydrochloride, reference compound]
discrimination index (Male IGS rats [2]; donepezil-treated group, orally, vs vehicle (p<0.05, Student's t-test)): statistically significant compared to that in vehicle-treated group

CC(C)n1c(=O)n(C(=O)NCC2CCN(CC3(O)CCOCC3)CC2)c2ccccc21 [Compound A, N-((1-((4-hydroxytetrahydro-2H-pyran-4-yl)methyl)piperidin-4-yl)methyl)-3-isopropyl-2-oxo-2,3-dihydro-1H-benzo[d]imidazole-1-carboxamide]
discrimination index (Male IGS rats [2]; Compound A 0.1, 0.3, 1 mg/kg, orally 60 min before training and retention trial, vs vehicle (*p<0.05, **p<0.01, Dunnett)): statistically significant compared to that in vehicle-treated group
percent alteration (Male IGS rats [1]; 0.1 and 3 mg/kg, scopolamine-induced impairment): showed a tendency to improve without statistical significance
percent alteration (Male IGS rats [1]; doses of 0.3 and 1 mg/kg, scopolamine-induced impairment, vs vehicle-treated group (p<0.01)): significantly increased the percent alterations
ACh concentration (percent of baseline) [3]: 187%
total brain Abeta1-40 levels (Tg2576 mice): significantly decreased total brain Abeta1-40 levels
total brain Abeta1-42 levels (Tg2576 mice): dose-dependently and substantially decreased total brain Abeta1-42 levels

CC(C)n1c(=O)c(C(=O)NCCCN2CCCCC2)c(O)c2ccsc21 [PRX-03140]
Abeta reduction in animal models (Abeta): Abeta reducing tendency while those efficacies were not significant suppressions
